Laboratory results taken from article PMC11676667, “Pharmacokinetics of Oral Cannabinoid Δ8-Tetrahydrocannabivarin and Its Main Metabolites in Healthy Participants” (Pharmaceuticals, 2024).
Read-outs that look alike come from different tables or passages of the source.

Experiment: Plasma pharmacokinetics after single oral dose of Δ8-THCV in MCT oil (LC-MS/MS, non-compartmental analysis)
Format: in vivo, human
Set-up: Clast (last quantifiable concentration): unit not given here
Settings: for Clast (last quantifiable concentration) / tlast (time to last quantifiable concentration) / concentration at 0.5 h / concentration at 1 h / concentration at 2 h / concentration at 4 h / concentration at 6 h / concentration at 8 h / AUC(0-t) / Cmax / MRT / Tmax: plasma; for plasma concentration: Predose; for concentration at 0.5 h / concentration at 1 h / concentration at 2 h / concentration at 4 h / concentration at 6 h / concentration at 8 h / AUC(0-t) / Cmax / MRT / Tmax: human; for concentration at 0.5 h / concentration at 1 h / concentration at 2 h / concentration at 4 h / concentration at 6 h / concentration at 8 h: oral; for AUC(0-t) / Cmax / MRT / Tmax: po; for MRT: read-out: MRT (mean residence time); for Tmax: read-out: tmax
Method in brief: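 Healthy participants received single oral Δ8-THCV in MCT oil (50 mg/mL; 12.5-200 mg, or placebo) after a high-fat, high-calorie breakfast, with ≥1-week washout. Plasma (K2EDTA) sampled predose and 0.5-8 h post-dose, assayed by validated LC-MS/MS including metabolites; PK by non-compartmental analysis, sub-LLOQ values set to 0.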

[1] = 100 mg single oral Δ8-THCV in MCT oil, Mean (±SD)
[2] = 100 mg single oral Δ8-THCV in MCT oil, Median (Range)
[3] = 200 mg single oral Δ8-THCV in MCT oil, Mean (±SD)
[4] = 200 mg single oral Δ8-THCV in MCT oil, Median (Range)
[5] = 12.5 mg, 12.5 mg Δ8-THCV dose, Mean (SD, %CV)
[6] = 12.5 mg, 12.5 mg Δ8-THCV dose, Median (IQ Range)
[7] = 25 mg, 25 mg Δ8-THCV dose, Mean (SD, %CV)
[8] = 25 mg, 25 mg Δ8-THCV dose, Median (IQ Range)
[9] = 50 mg, 50 mg Δ8-THCV dose, Mean (SD, %CV)
[10] = 50 mg, 50 mg Δ8-THCV dose, Median (IQ Range)
[11] = 100 mg, 100 mg Δ8-THCV dose, Mean (SD, %CV)
[12] = 100 mg, 100 mg Δ8-THCV dose, Median (IQ Range)
[13] = 200 mg, 200 mg Δ8-THCV dose, Mean (SD, %CV)
[14] = 200 mg, 200 mg Δ8-THCV dose, Median (IQ Range)
[15] = 100 mg, 100 mg single oral Δ8-THCV in MCT oil, Mean (±SD)
[16] = 100 mg, 100 mg single oral Δ8-THCV in MCT oil, Median (Range)
[17] = 200 mg, 200 mg single oral Δ8-THCV in MCT oil, Mean (±SD)
[18] = 200 mg, 200 mg single oral Δ8-THCV in MCT oil, Median (Range)

With `CCCc1cc(O)c2c(c1)OC(C)(C)[C@@H]1CCC(C)=C[C@@H]21` [Δ9-THCV, Δ9-tetrahydrocannabivarin] the “Clast (last quantifiable concentration)” value [1] was 1.1 (±0.5), the “tlast (time to last quantifiable concentration)” value (from here on “tlast”) [1] was 4.8 (±1.5) and the “Clast (last quantifiable concentration)” value [2] was 0.8 (0.5–1.9). The “tlast” value [2] was 5 (2–6), the “Clast (last quantifiable concentration)” value [3] was 1.5 (±1) and the “tlast” value [3] was 6.2 (±2.1). For the same molecule, the “Clast (last quantifiable concentration)” value [4] was 1.4 (0.5–4.1), the “tlast” value [4] was 6 (2–8) and the plasma concentration (12.5 mg Δ8-THCV dose, Mean (SD, %CV)) was 0 (±0, --) ng/mL. The plasma concentration (12.5 mg Δ8-THCV dose, Median (IQ Range)) was 0 (0–0) ng/mL, the plasma concentration (25 mg Δ8-THCV dose, Mean (SD, %CV)) was 0 (±0, --) ng/mL and the plasma concentration (25 mg Δ8-THCV dose, Median (IQ Range)) was 0 (0–0) ng/mL. The plasma concentration (50 mg Δ8-THCV dose, Mean (SD, %CV)) was 0 (±0, --) ng/mL, the plasma concentration (50 mg Δ8-THCV dose, Median (IQ Range)) was 0 (0–0) ng/mL and the plasma concentration (100 mg Δ8-THCV dose, Mean (SD, %CV)) was 0 (±0, --) ng/mL. For the same molecule, the plasma concentration (100 mg Δ8-THCV dose, Median (IQ Range)) was 0 (0–0) ng/mL, the plasma concentration (200 mg Δ8-THCV dose, Mean (SD, %CV)) was 0 (±0, --) ng/mL and the plasma concentration (200 mg Δ8-THCV dose, Median (IQ Range)) was 0 (0–0) ng/mL. It also gave a concentration at 0.5 h [5] of 0 ng/mL, a concentration at 0.5 h [6] of 0 ng/mL and a concentration at 1 h [5] of 0 ng/mL. The concentration at 1 h [6] was 0 ng/mL, the concentration at 2 h [5] was 0 ng/mL and the concentration at 2 h [6] was 0 ng/mL. It also gave a concentration at 4 h [5] of 0 ng/mL, a concentration at 4 h [6] of 0 ng/mL and a concentration at 6 h [5] of 0 ng/mL. The concentration at 6 h [6] was 0 ng/mL, the concentration at 8 h [5] was 0 ng/mL and the concentration at 8 h [6] was 0 ng/mL. It also gave a concentration at 0.5 h [7] of 0 ng/mL, a concentration at 0.5 h [8] of 0 ng/mL and a concentration at 1 h [7] of 0 ng/mL. It also gave a concentration at 1 h [8] of 0 ng/mL, a concentration at 2 h [7] of 0 ng/mL and a concentration at 2 h [8] of 0 ng/mL. It also gave a concentration at 4 h [7] of 0 ng/mL, a concentration at 4 h [8] of 0 ng/mL and a concentration at 6 h [7] of 0 ng/mL. It also gave a concentration at 6 h [8] of 0 ng/mL, a concentration at 8 h [7] of 0 ng/mL and a concentration at 8 h [8] of 0 ng/mL. For the same molecule, the concentration at 0.5 h [9] was 0 ng/mL, the concentration at 0.5 h [10] was 0 ng/mL and the concentration at 1 h [9] was 0 ng/mL. It also gave a concentration at 1 h [10] of 0 ng/mL, a concentration at 2 h [9] of 0 ng/mL and a concentration at 2 h [10] of 0 ng/mL. It also gave a concentration at 4 h [9] of 0 ng/mL, a concentration at 4 h [10] of 0 ng/mL and a concentration at 6 h [9] of 0.1 ng/mL. The concentration at 6 h [10] was 0 ng/mL, the concentration at 8 h [9] was 0 ng/mL and the concentration at 8 h [10] was 0 ng/mL. For the same molecule, the concentration at 0.5 h [11] was 0 ng/mL, the concentration at 0.5 h [12] was 0 ng/mL and the concentration at 1 h [11] was 0.1 ng/mL. For the same molecule, the concentration at 1 h [12] was 0 ng/mL, the concentration at 2 h [11] was 0.1 ng/mL and the concentration at 2 h [12] was 0 ng/mL. The concentration at 4 h [11] was 0.3 ng/mL, the concentration at 4 h [12] was 0 ng/mL and the concentration at 6 h [11] was 0.3 ng/mL. It also gave a concentration at 6 h [12] of 0 ng/mL, a concentration at 8 h [11] of 0 ng/mL and a concentration at 8 h [12] of 0 ng/mL. For the same molecule, the concentration at 0.5 h [13] was 0 ng/mL, the concentration at 0.5 h [14] was 0 ng/mL and the concentration at 1 h [13] was 0 ng/mL. It also gave a concentration at 1 h [14] of 0 ng/mL, a concentration at 2 h [13] of 0.6 ng/mL and a concentration at 2 h [14] of 0 ng/mL. It also gave a concentration at 4 h [13] of 0.9 ng/mL, a concentration at 4 h [14] of 0.7 ng/mL and a concentration at 6 h [13] of 0.7 ng/mL. For the same molecule, the concentration at 6 h [14] was 0.6 ng/mL, the concentration at 8 h [13] was 0.6 ng/mL and the concentration at 8 h [14] was 0 ng/mL. For the same molecule, the AUC(0-t) [15] was 1.4 ng·h/mL, the Cmax [15] was 1.1 ng/mL and the AUC(0-t) [16] was 1.2 ng·h/mL. The Cmax [16] was 0.9 ng/mL, the MRT [15] was 4.4 h and the Tmax [15] was 4.6 h. The MRT [16] was 4.4 h, the Tmax [16] was 5 h and the AUC(0-t) [17] was 4.8 ng·h/mL. For the same molecule, the Cmax [17] was 2 ng/mL, the AUC(0-t) [18] was 4.5 ng·h/mL and the Cmax [18] was 1.7 ng/mL. The MRT [17] was 4.5 h, the Tmax [17] was 4.9 h and the MRT [18] was 4.6 h. For the same molecule, the Tmax [18] was 4 h, the “number of positive plasma samples” value (of 504 plasma samples from 15 participants after oral Δ8-THCV) was 42 and the “concentration in representative plasma sample” value (one subject after oral Δ8-THCV in MCT oil, Figure A1) was 2.4 ng/mL.
